Patent US7915012B2, “Methods for screening for inhibitors of TRPV2 activation” (Korea University Industry and Academic Collaboration …, priority 2008, dated 2011)
Entries after “also recorded” stand apart in the source; their conditions may differ.

Assays:
rTRPV2 = molecular target: T1, rTRPV2 (Rattus norvegicus, UniProt Q9WUD2, A713V/L151P/T158I); assay: Whole-cell voltage-clamp recording in TRPV2 transfected HEK293T cell line; format: cell-based; conditions: 100 μM probenecid; +60 mV and −60 mV; n=5
T1 construct: expressed in transfected cells; host or cells: HEK293T (ATCC CRL-11268)
T1 sequence (Q9WUD2 1-761 L151P/T158I/A713V): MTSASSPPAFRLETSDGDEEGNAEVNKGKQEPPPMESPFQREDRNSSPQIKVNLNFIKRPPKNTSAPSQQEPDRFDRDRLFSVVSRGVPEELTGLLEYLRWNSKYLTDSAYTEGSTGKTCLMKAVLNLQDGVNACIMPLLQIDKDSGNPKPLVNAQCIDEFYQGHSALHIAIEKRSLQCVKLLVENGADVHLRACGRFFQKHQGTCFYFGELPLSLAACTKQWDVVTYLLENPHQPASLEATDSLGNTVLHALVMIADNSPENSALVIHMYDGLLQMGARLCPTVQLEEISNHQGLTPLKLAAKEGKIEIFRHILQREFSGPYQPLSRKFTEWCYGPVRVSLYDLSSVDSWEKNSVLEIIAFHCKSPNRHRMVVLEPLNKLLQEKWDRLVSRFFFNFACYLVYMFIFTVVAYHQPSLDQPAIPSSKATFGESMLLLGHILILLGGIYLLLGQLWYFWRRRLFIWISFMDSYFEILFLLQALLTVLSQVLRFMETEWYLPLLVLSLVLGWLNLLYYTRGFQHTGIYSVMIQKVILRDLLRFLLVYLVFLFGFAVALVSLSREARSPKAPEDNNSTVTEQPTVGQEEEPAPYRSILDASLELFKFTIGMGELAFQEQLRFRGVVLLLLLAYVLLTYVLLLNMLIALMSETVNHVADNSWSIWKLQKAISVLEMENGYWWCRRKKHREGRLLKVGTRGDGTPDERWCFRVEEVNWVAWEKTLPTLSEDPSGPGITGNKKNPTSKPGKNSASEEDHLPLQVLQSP
Method: (§1) HEK293T cell line (ATCC CRL-1 1268) was transiently transfected with plasmid DNA containing polynucleotide encoding […] (SEQ. ID. NO: 1), rTRPV2 (SEQ. ID. NO: 2), mTRPV3 (SEQ. ID. NO: 3), rTRPV4 (SEQ. ID. NO: 4), mTRPM8 (SEQ. ID. NO: 5) or mTRPA1 (SEQ. ID. NO: 6).
(§2) Particularly, the HEK293T cell line was transiently transfected with individual TRP channel plasmid (pcDNA3.1 containing polynucleotide encoding rTRPV1, rTRPV2, mTRPV3, rTRPV4, mTRPM8 or mTRPA1), and 600 ng/well of pCDNA3 (Invitrogen Corp., USA; containing green fluorescent protein (GFP) cDNA) using Fugene6 (Roche Diagnostics, USA) according to manufacturer's instruction. The transformed cells were cultured in DMEM/F12 containing 10% FBS and 1% penicillin/streptomycin in a CO2 incubator for 24 hours. The cells were replated onto poly-L-lysine-coated glass coverslips, followed by further culture for 10-24 hours.
The TRPV2 transfected cell line prepared in Example 1 was treated with 100 μM probenecid (Sigma-Aldrich, USA) and 300 μM 2-APB (2-aminoethoxydiphenyl borate; Cayman Chemical, USA), respectively. Stock solutions were made using water, DMSO or ethanol, and were diluted with test solutions before use.
Whole-cell voltage-clamp recording, one of the patch-clamp techniques, was performed with the transfected cell line of Example <1-1> according to the method of Bandel M, et al. (Neuron 41:849-857, 2004).
Particularly, the extracellular solution (140 mM NaCl, 5 mM KCl, 2 mM CaCl2, 1 mM MgCl2, 10 mM HEPES; titrated to pH 7.4 with NaOH) and the pipette solution (140 mM CsCl, 5 mM EGTA, 10 mM HEPES, 2.0 mM MgATP, 0.2 mM NaGTP; titrated to pH 7.2 with CsOH) were used. The potential was held at −60 mV for 250 ms, voltage-ramp pulsed from −80 mV to +80 mV for […] and returned to −60 mV for 250 ms, which was repeated without intersweep. This experiment was repeated 5 times.
The TRPV2 transfected cell line prepared by the method of Example 1 was treated with 100 μM probenecid, 100 μM probenecid+20 μM ruthenium red (Sigma-Aldrich, USA) and 300 μM 2-APB, respectively. […]

mTRPA1 = molecular target: T2, mTRPA1 (Mus musculus, UniProt Q8BLA8); assay: Fluo-3 calcium imaging in TRPA1 transfected HEK293T cell line; format: cell-based; conditions: 100 μM probenecid
T2 construct: expressed in transfected cells; host or cells: HEK293T (ATCC CRL-11268)
T2 sequence (Q8BLA8 whole entry): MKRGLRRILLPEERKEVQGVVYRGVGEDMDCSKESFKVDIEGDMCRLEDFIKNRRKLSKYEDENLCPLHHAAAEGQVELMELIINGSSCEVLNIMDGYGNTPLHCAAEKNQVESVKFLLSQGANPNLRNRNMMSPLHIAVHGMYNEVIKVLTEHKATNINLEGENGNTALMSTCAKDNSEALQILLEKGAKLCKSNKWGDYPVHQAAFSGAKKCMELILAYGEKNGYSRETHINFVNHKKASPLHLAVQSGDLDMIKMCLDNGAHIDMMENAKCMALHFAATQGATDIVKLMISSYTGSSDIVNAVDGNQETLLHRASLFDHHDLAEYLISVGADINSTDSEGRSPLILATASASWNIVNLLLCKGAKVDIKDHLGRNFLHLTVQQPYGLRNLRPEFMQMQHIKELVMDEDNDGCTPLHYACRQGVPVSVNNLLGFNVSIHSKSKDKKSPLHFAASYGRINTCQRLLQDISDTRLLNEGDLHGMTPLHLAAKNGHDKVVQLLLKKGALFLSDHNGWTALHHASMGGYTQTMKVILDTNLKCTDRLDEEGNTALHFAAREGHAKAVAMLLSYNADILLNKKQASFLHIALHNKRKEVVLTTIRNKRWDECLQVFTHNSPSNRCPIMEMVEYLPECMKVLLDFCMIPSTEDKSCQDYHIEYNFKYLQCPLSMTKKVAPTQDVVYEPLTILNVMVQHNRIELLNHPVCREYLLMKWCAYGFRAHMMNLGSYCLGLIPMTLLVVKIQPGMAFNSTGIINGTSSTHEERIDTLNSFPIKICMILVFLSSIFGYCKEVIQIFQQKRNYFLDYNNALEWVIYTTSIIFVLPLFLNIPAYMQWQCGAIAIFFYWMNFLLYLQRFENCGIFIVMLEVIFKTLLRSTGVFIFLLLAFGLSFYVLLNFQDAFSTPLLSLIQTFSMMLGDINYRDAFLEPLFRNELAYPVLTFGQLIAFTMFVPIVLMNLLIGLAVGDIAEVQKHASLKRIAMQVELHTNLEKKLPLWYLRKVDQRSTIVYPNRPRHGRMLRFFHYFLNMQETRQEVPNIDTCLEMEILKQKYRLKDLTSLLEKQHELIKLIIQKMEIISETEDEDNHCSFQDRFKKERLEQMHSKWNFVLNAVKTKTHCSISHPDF
Method: as §1, §2
(§3) Particularly, the transfected cell line of Example <3-1> and Example <3-2> was loaded with Fluo-3AM (5 μM; Sigma Aldrich, USA) in the bath solution (140 mM NaCl, 5 mM KCl, 2 mM CaCl2, 1 mM MgCl2, 10 mM HEPES; adjusted to pH 7.4 with NaOH) containing 0.02% pluronic acid (Invitrogen, USA) at 37° C. for 1 hour. […]

mTRPM8 = molecular target: T3, mTRPM8 (Mus musculus, UniProt Q8R4D5); assay: Fluo-3 calcium imaging in TRPM8 transfected HEK293T cell line; format: cell-based; conditions: 100 μM probenecid
T3 construct: expressed in transfected cells; host or cells: HEK293T (ATCC CRL-11268)
T3 sequence (Q8R4D5 whole entry): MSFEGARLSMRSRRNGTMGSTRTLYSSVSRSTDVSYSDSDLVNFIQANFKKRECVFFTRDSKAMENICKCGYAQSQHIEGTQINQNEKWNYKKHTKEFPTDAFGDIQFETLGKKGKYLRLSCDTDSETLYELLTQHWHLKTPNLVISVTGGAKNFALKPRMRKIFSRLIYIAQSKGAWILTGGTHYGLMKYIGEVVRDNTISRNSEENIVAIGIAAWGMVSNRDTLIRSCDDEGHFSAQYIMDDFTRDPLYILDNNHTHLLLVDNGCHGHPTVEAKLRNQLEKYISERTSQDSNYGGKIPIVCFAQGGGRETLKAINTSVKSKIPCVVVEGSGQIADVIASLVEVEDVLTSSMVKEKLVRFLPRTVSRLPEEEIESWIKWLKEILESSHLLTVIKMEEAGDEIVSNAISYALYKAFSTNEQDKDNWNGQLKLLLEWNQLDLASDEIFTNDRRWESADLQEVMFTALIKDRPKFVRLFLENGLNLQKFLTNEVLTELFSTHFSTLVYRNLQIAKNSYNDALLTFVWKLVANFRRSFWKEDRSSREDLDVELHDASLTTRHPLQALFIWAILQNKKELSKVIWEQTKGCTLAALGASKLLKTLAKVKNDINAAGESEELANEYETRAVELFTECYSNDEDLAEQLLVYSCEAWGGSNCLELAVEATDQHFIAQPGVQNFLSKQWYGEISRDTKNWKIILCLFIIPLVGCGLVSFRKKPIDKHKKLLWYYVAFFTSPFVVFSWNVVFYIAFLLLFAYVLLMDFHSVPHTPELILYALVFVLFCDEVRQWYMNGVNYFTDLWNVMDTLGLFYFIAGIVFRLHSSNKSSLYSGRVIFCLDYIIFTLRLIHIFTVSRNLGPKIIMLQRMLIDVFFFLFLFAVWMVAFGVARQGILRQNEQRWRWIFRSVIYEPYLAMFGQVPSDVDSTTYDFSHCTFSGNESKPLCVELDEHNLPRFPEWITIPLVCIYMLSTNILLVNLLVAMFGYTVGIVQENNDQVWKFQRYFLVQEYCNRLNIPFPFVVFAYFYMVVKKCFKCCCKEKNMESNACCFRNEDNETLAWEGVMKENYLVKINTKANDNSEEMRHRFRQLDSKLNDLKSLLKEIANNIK
Method: as §1, §2, §3

trigeminal neurons = assay: Whole-cell voltage-clamp recording in trigeminal neurons; format: cell-based, ICR mice; conditions: 100 μM probenecid
[1] = Hindpaw licking/flicking behaviors; format: in vivo, mice; conditions: 10 minutes
Method: Inflammatory sensitization by probenecid was investigated. Particularly, 50 μl of 1% carrageenan (Sigma Aldrich, USA) was injected to the right hind paws of mice 3 hours before the probenecid injection or 50 μl of CFA (complete Freund's adjuvant; Sigma Aldrich, USA) was injected 24 hours before the probenecid injection. Before the experiment, the mice were adapted for one hour to the experimental environment. […] of vehicle (saline containing 3% DMSO and 0.5% Tween 80) alone or […] of vehicle containing probenecid (20 mM) was injected to the right hind paws of the mice.
The time spent for the hindpaw licking/flicking behaviors in mice were measured according to the method of Bandell M, et al. (Neuron 41:849-857, 2004) and Moqrich A, et al. (Science 307:1468-1472, 2005), for 10 minutes. Statistical data were analyzed by two-tailed, unpaired Student's-t-test and the results were presented by mean ±S.E.M. (***p<0.001, **p<0.01, *p<0.05 and ND, p>0.05).

Structure (SMILES): CCCN(CCC)S(=O)(=O)c1ccc(C(=O)O)cc1 [probenecid]
- whole cell current (TRPV2 activation) (rTRPV2): significant increase of current
- TRPA1 activation (calcium imaging) (mTRPA1): only TRPV2 was activated; also recorded: not confirmed
- TRPM8 activation (calcium imaging) (mTRPM8): only TRPV2 was activated; also recorded: not confirmed
- probenecid induced currents in 2-APB-sensitive trigeminal neurons (trigeminal neurons): exhibited outward rectifying
- hindpaw licking/flicking behavior in normal mice ([1]; 20 mM probenecid injected to the right hind paw): no significant changes in behavior
- hindpaw licking/flicking behavior in mice with inflammation induced by carrageenan ([1]; 1% carrageenan 3 hours before, 20 mM probenecid to the right hind paw): significantly extended behavior time; also recorded: behavial changes were observed
- hindpaw licking/flicking behavior in mice with inflammation induced by CFA ([1]; CFA 24 hours before, 20 mM probenecid to the right hind paw): significantly extended behavior time; also recorded: behavial changes were observed
